Values after ≈ are worked out from the molar mass of the structure shown.
What was measured:
[1] = system: A. viscosus; assay: MIC microdilution, gram positive; format: cell-based, Actinomyces viscosus; conditions: Table 2, Gram Positive; for MIC: Actinomyces viscosus
Protocol: (§1) The MIC's for the compounds were determined by a modified microdilution tube dilution method described in “Methods for Dilution Antimicrobial Susceptibility Tests for Bacteria that Grow Aerobically” (National Committee for Clinical Laboratory Standards Approved Standards, 1997, NCCLS document M7-A4). In general the modifications were made because of the unique growth requirements for the fastidious oral organisms and for those bacteria that require anaerobic conditions. Reference is also made to “Methods for Antimicrobial Susceptibility of Anaerobic Bacteria” (National Committee for Clinical Laboratory Standards Approved Standards, 1997, NCCLS document M11-A4). Briefly, the methods were as follows. Cultures were grown for 18-24hrs (aerobic bacteria) or 48-72 hrs (anaerobic bacteria) in the appropriate medium. For aerobic bacteria full strength brain heart infusion medium (BHI, Difco) was used. For anaerobic bacteria, half strength BHI (18.5 g/L) was supplemented by adding yeast extract (10 g/L), hemin (0.29 mL of a stock solution containing 0.1 g/200 mL dH2O) and menadione (15 mL of a stock solution containing 0.15 mL in 30 mL 95% EtOH) was used. Initial cultures were diluted to approximately 1×10^8 CFU/mL for use as an inoculum. Each assay received 10 μL of the inoculum. The drugs were prepared from a stock solution contained in dimethyl sulfoxide (DMSO) and diluted into the culture medium. Final concentrations of the drugs ranged from 50 to 0.05 μg/assay. The tests were run in duplicate and were incubated appropriately with regard to oxygen requirements for 24 to 48 hrs as required. Anaerobic incubation was an atmosphere of 5% CO2, 10% H2, with the balance N2. The lowest concentration of an antimicrobial agent at which no visible growth is noted was referred to as the MIC.

[2] = system: P. acnes 6922; assay: MIC microdilution, gram positive; format: cell-based, Propionibacterium acnes; conditions: Table 1, Gram Positive; for MIC: Cutibacterium acnes, 6922
Protocol: as §1

[3] = system: P. acnes 11828; assay: MIC microdilution, gram positive; format: cell-based, Propionibacterium acnes; conditions: Cutibacterium acnes, 11828; Table 1, Gram Positive
Protocol: as §1

[4] = system: S.salivarius; assay: MIC microdilution, gram positive; format: cell-based, Streptococcus salivarius; conditions: Streptococcus salivarius; Table 1, Gram Positive
Protocol: as §1

[5] = system: S. aureus; assay: MIC microdilution, gram positive; format: cell-based, Staphlococcus aureus; conditions: Table 2, Gram Positive; for MIC: Staphylococcus aureus
Protocol: The MIC's for the compounds were determined by a modified microdilution tube dilution method described in “Methods for Dilution Antimicrobial Susceptibility Tests for Bacteria that Grow Aerobically” (National Committee for Clinical Laboratory Standards Approved Standards, 1997, NCCLS document M7-A4). In general the modifications were made because of the unique growth requirements for the fastidious oral organisms and for those bacteria that require anaerobic conditions. Reference is also made to “Methods for Antimicrobial Susceptibility of Anaerobic Bacteria” (National Committee for Clinical Laboratory Standards Approved Standards, 1997, NCCLS document M11-A4).
Briefly, the methods were as follows. Cultures were grown for 18-24hrs (aerobic bacteria) or 48-72 hrs (anaerobic bacteria) in the appropriate medium. For aerobic bacteria full strength brain heart infusion medium (BHI, Difco) was used. For anaerobic bacteria, half strength BHI (18.5 g/L) was supplemented by adding yeast extract (10 g/L), hemin (0.29 mL of a stock solution containing 0.1 g/200 mL dH2O) and menadione (15 mL of a stock solution containing 0.15 mL in 30 mL 95% EtOH) was used. Initial cultures were diluted to approximately 1×10^8 CFU/mL for use as an inoculum. Each assay received 10 μL of the inoculum. The drugs were prepared from a stock solution contained in dimethyl sulfoxide (DMSO) and diluted into the culture medium. Final concentrations of the drugs ranged from 50 to 0.05 μg/assay. The tests were run in duplicate and were incubated appropriately with regard to oxygen requirements for 24 to 48 hrs as required. Anaerobic incubation was an atmosphere of 5% CO2, 10% H2, with the balance N2. The lowest concentration of an antimicrobial agent at which no visible growth is noted was referred to as the MIC.
This embodiment describes the sensitivity of various staphylococcus strains to the compounds of the present invention. The staphylococcus species R is a strain 00-045-1209 from the Children's Hospital in Buffalo. It was isolated from the peritoneal cavity (fluid culture) of an individual. It was coagulase negative. The sensitivity of this strain was tested agaisnt several known antibiotics.

[6] = system: S. mutans; assay: MIC microdilution, gram positive; format: cell-based, Streptococcus mutans; conditions: Table 1, Gram Positive; for MIC: Streptococcus mutans
Protocol: as §1

[7] = system: S. sanguis; assay: MIC microdilution, gram positive; format: cell-based, Streptococcus sanguis; conditions: Streptococcus; Table 1, Gram Positive
Protocol: as §1

[8] = system: P. ging 381; assay: MIC microdilution, gram negative; format: cell-based, Porphyromonas gingivalis; conditions: for MIC: Porphyromonas gingivalis, 381
Protocol: The MIC's for the compounds were determined by a modified microdilution tube dilution method described in “Methods for Dilution Antimicrobial Susceptibility Tests for Bacteria that Grow Aerobically” (National Committee for Clinical Laboratory Standards Approved Standards, 1997, NCCLS document M7-A4). In general the modifications were made because of the unique growth requirements for the fastidious oral organisms and for those bacteria that require anaerobic conditions. Reference is also made to “Methods for Antimicrobial Susceptibility of Anaerobic Bacteria” (National Committee for Clinical Laboratory Standards Approved Standards, 1997, NCCLS document M11-A4). Briefly, the methods were as follows. Cultures were grown for 18-24hrs (aerobic bacteria) or 48-72 hrs (anaerobic bacteria) in the appropriate medium. For aerobic bacteria full strength brain heart infusion medium (BHI, Difco) was used. For anaerobic bacteria, half strength BHI (18.5 g/L) was supplemented by adding yeast extract (10 g/L), hemin (0.29 mL of a stock solution containing 0.1 g/200 mL dH2O) and menadione (15 mL of a stock solution containing 0.15 mL in 30 mL 95% EtOH) was used. Initial cultures were diluted to approximately 1×10^8 CFU/mL for use as an inoculum. Each assay received 10 μL of the inoculum. The drugs were prepared from a stock solution contained in dimethyl sulfoxide (DMSO) and diluted into the culture medium. Final concentrations of the drugs ranged from 50 to 0.05 μg/assay. The tests were run in duplicate and were incubated appropriately with regard to oxygen requirements for 24 to 48 hrs as required. Anaerobic incubation was an atmosphere of 5% CO2, 10% H2, with the balance N2. The lowest concentration of an antimicrobial agent at which no visible growth is noted was referred to as the MIC. […] The method used was the same as described in Example 1.

[9] = Table 3 printed a second time, Gram Negative

MIC [1] [µg/mL] | MIC [2] [µg/mL] | MIC [3] [µg/mL] | MIC [4] [µg/mL] | MIC [5] [µg/mL] | MIC [6] [µg/mL] | MIC [7] [µg/mL] | MIC ([8]; Table 3, Gram Negative) [µg/mL] | MIC P. ging 381 [8, 9] | Compound | MIC A. viscosus [1] | MIC P. acnes 6922 [2] | MIC S. aureus [5] | MIC S. mutans [6] | MIC P. ging 381 ([8]; Table 3, Gram Negative)
3.1 (≈ 8.44 µM) | 25 (≈ 68 µM) | > 50 | > 50 | 50 (≈ 136 µM) | 50 (≈ 136 µM) | > 50 | 1.6 (≈ 4.35 µM) | 1.6 micrograms/ml | O=C(Nc1ccccc1)c1cc(C(=O)c2cccc3ccccc23)ccc1O [NA1, 2-Hydroxy-5-(naphthalene-1-carbonyl)-N-phenyl-benzamide] | – | – | – | – | –
– | – | – | – | – | – | – | – | 0.2 micrograms/ml | N#Cc1ccc(NC(=O)c2cc(C(=O)c3cccc4ccccc34)ccc2O)c2ccccc12 [NA1NpC] | 0.8 micrograms/ml | 0.4 micrograms/ml | NE (NE indicates that the drug was not effective at a concentration >50 micrograms/ml) | NE (NE indicates that the drug was not effective at a concentration >50 micrograms/ml) | 0.2 micrograms/ml
0.8 (≈ 1.77 µM) | 3.1 (≈ 6.87 µM) | – | – | > 50 | 6.3 (≈ 14 µM) | – | 0.8 (≈ 1.77 µM) | 0.8 micrograms/ml | O=C(Nc1cccc(C(F)(F)F)c1)c1cc(C(=O)c2c(O)ccc3ccccc23)ccc1O [NA1OHmF] | – | – | – | – | –
6.3 (≈ 13.3 µM) | > 50 | – | – | > 50 | > 50 | – | 3.1 (≈ 6.55 µM) | 3.1 micrograms/ml | O=C(Nc1cccc(COc2ccccc2)c1)c1cc(C(=O)c2cccc3ccccc23)ccc1O [NA1_3BnOP] | – | – | – | – | –
0.8 (≈ 1.59 µM) | 0.4 (≈ 0.795 µM) | – | – | > 50 | 1.6 (≈ 3.18 µM) | – | 0.2 (≈ 0.397 µM) | 0.2 micrograms/ml | O=C(Nc1cc(C(F)(F)F)cc(C(F)(F)F)c1)c1cc(C(=O)c2cccc3ccccc23)ccc1O [NAmF2] | – | – | – | – | –

Compound | MIC [1] [µg/mL] | MIC [2] [µg/mL] | MIC [3] [µg/mL] | MIC [4] [µg/mL] | MIC [5] [µg/mL] | MIC [6] [µg/mL] | MIC [7] [µg/mL] | MIC ([8]; Table 3, Gram Negative) [µg/mL] | MIC P. ging 381 [8, 9] | MIC A. viscosus [1] | MIC P. acnes 6922 [2] | MIC S. aureus [5] | MIC S. mutans [6] | MIC P. ging 381 ([8]; Table 3, Gram Negative)
COc1cc(NC(=O)c2cc(C(=O)c3cccc4ccccc34)ccc2O)cc(OC)c1 [NA1-2mOMe] | – | – | – | – | – | – | – | – | NE (NE indicates that the drug was not effective at a concentration >50 micrograms/ml) | NE (NE indicates that the drug was not effective at a concentration >50 micrograms/ml) | NE (NE indicates that the drug was not effective at a concentration >50 micrograms/ml) | NE (NE indicates that the drug was not effective at a concentration >50 micrograms/ml) | NE (NE indicates that the drug was not effective at a concentration >50 micrograms/ml) | NE (NE indicates that the drug was not effective at a concentration >50 micrograms/ml)
O=C(Nc1cccc(Oc2ccccc2)c1)c1cc(C(=O)c2cccc3ccccc23)ccc1O [NA1mOPh] | – | – | – | – | – | – | – | – | NE (NE indicates that the drug was not effective at a concentration >50 micrograms/ml) | NE (NE indicates that the drug was not effective at a concentration >50 micrograms/ml) | NE (NE indicates that the drug was not effective at a concentration >50 micrograms/ml) | NE (NE indicates that the drug was not effective at a concentration >50 micrograms/ml) | NE (NE indicates that the drug was not effective at a concentration >50 micrograms/ml) | NE (NE indicates that the drug was not effective at a concentration >50 micrograms/ml)
O=C(c1ccccc1)c1ccc(NC(=O)c2cc(C(=O)c3cccc4ccccc34)ccc2O)cc1 [NA1pBz] | – | – | – | – | – | – | – | – | NE (NE indicates that the drug was not effective at a concentration >50 micrograms/ml) | NE (NE indicates that the drug was not effective at a concentration >50 micrograms/ml) | NE (NE indicates that the drug was not effective at a concentration >50 micrograms/ml) | NE (NE indicates that the drug was not effective at a concentration >50 micrograms/ml) | NE (NE indicates that the drug was not effective at a concentration >50 micrograms/ml) | NE (NE indicates that the drug was not effective at a concentration >50 micrograms/ml)

Reference: patent publication US6407288B1, “Naphthylsalicylanilides as antimicrobial and antiinflammatory agents” (The Research Foundation of State University of New York, priority 2000, dated 2002)
